Reference: US8962651B2, “Compounds for the treatment of hepatitis C” (Bristol-Myers Squibb Company, priority 2013, dated 2015)
pEC50: −log10 of the molar value.

System: genotype 1b (Con-1) HCV replicon
Experiment: HCV replicon luciferase assay
Assay type: cell-based
Settings: 1b replicon, Huh-7 cells, Renilla luciferase, 3 days incubation
Description: The cell lines used to evaluate compounds consist of a human hepatocyte derived cell line (Huh-7) that constitutively expresses a genotype 1b (Con-1) HCV replicon or a genotype 1b (Con-1) HCV replicon with an asparagine replacing the cysteine at amino acid 316, or a genotype 2a (JFH-1) replicon, containing a Renilla luciferase reporter gene. These cells were maintained in Dulbecco's modified Eagle medium (DMEM) containing 10% FBS, 100 U/mL penicillin/streptomycin and 1.0 mg/mL G418.
After 3 days incubation at 37° C., cells were analyzed for Renilla Luciferase activity using the EnduRen substrate (Promega cat #E6485) according to the manufacturer's directions. Briefly, the EnduRen substrate was diluted in DMEM and then added to the plates to a final concentration of 7.5 μM. The plates were incubated for at least 1 h at 37° C. then read on a Viewlux Imager (PerkinElmer) using a luminescence program.

Structure (SMILES)	pEC50 (Hepatitis C virus, Huh-7, 72 h)	pEC50
CNC(=O)c1c(-c2ccc(F)cc2)oc2nc(CCC(F)(F)F)c(-c3cccc(C(=O)NC(C)(C)c4ncon4)c3)cc12 [Example 1, 5-(3-((2-(1,2,4-oxadiazol-3-yl)propan-2-yl)carbamoyl)phenyl)-2-(4-fluorophenyl)-N-methyl-6-(3,3,3-trifluoropropyl)furo[2,3-b]pyridine-3-carboxamide]	8.52	
CNC(=O)c1c(-c2ccc(F)cc2)oc2nc(NCC(F)(F)F)c(-c3cccc(C(=O)NC4(c5ncon5)CCC4)c3)cc12 [Example 5, 5-(3-((1-(1,2,4-oxadiazol-3-yl)cyclobutyl)carbamoyl)phenyl)-2-(4-fluorophenyl)-N-methyl-6-((2,2,2-trifluoroethyl)amino)furo[2,3-b]pyridine-3-carboxamide]	8.30	
CNC(=O)c1c(-c2ccc(F)cc2)oc2nc(NCC(F)(F)F)c(-c3cccc(C(=O)NC4(c5noc(C)n5)CC4)c3)cc12 [Example 6, 2-(4-fluorophenyl)-N-methyl-5-(3-((1-(5-methyl-1,2,4-oxadiazol-3-yl)cyclopropyl)carbamoyl)phenyl)-6-((2,2,2-trifluoroethyl)amino)furo[2,3-b]pyridine-3-carboxamide]	8.32	
CNC(=O)c1c(-c2ccc(F)cc2)oc2nc(NCC(F)(F)F)c(-c3cccc(C(=O)NC(C)(C)c4nc(C)no4)c3)cc12 [Example 7, 2-(4-fluorophenyl)-N-methyl-5-(3-((2-(3-methyl-1,2,4-oxadiazol-5-yl)propan-2-yl)carbamoyl)phenyl)-6-((2,2,2-trifluoroethyl)amino)furo[2,3-b]pyridine-3-carboxamide]	8.46	
CNC(=O)c1c(-c2ccc(F)cc2)oc2nc(NCC(F)(F)F)c(-c3cccc(C(=O)NC4(c5nc(C)no5)CC4)c3)cc12 [Example 8, 2-(4-fluorophenyl)-N-methyl-5-(3-((1-(3-methyl-1,2,4-oxadiazol-5-yl)cyclopropyl)carbamoyl)phenyl)-6-((2,2,2-trifluoroethyl)amino)furo[2,3-b]pyridine-3-carboxamide]	8.25	
CNC(=O)c1c(-c2ccc(F)cc2)oc2nc(CCC(F)(F)F)c(-c3cccc(C(=O)NC(C)(C)c4noc(C)n4)c3)cc12 [Example 10, 2-(4-fluorophenyl)-N-methyl-5-(3-((2-(5-methyl-1,2,4-oxadiazol-3-yl)propan-2-yl)carbamoyl)phenyl)-6-(3,3,3-trifluoropropyl)furo[2,3-b]pyridine-3-carboxamide]	8.44	
CNC(=O)c1c(-c2ccc(F)cc2)oc2nc(NCC(F)(F)F)c(-c3cccc(C(=O)NC(C)(C)c4noc(C)n4)c3)cc12 [Example 11, 2-(4-fluorophenyl)-N-methyl-5-(3-((2-(5-methyl-1,2,4-oxadiazol-3-yl)propan-2-yl)carbamoyl)phenyl)-6-((2,2,2-trifluoroethyl)amino)furo[2,3-b]pyridine-3-carboxamide]	8.30	
CNC(=O)c1c(-c2ccc(F)cc2)oc2nc(NCC(F)(F)F)c(-c3cccc(C(=O)NC(C)(C)c4ncon4)c3)cc12 [Example 12, 5-(3-((2-(1,2,4-oxadiazol-3-yl)propan-2-yl)carbamoyl)phenyl)-2-(4-fluorophenyl)-N-methyl-6-((2,2,2-trifluoroethyl)amino)furo[2,3-b]pyridine-3-carboxamide]	8.53	
CNC(=O)c1c(-c2ccc(F)cc2)oc2nc(NCC(F)(F)F)c(-c3ccc(OC)c(C(=O)NC(C)(C)c4ncon4)c3)cc12 [Example 14, 5-(3-((2-(1,2,4-oxadiazol-3-yl)propan-2-yl)carbamoyl)-4-methoxyphenyl)-2-(4-fluorophenyl)-N-methyl-6-((2,2,2-trifluoroethyl)amino)furo[2,3-b]pyridine-3-carboxamide]	8.18	
CCC(C)c1nc2oc(-c3ccc(F)cc3)c(C(=O)NC)c2cc1-c1cccc(C(=O)NC(C)(C)c2ncon2)c1 (centres unmarked) [Example 15, 5-(3-((2-(1,2,4-oxadiazol-3-yl)propan-2-yl)carbamoyl)phenyl)-6-(sec-butyl)-2-(4-fluorophenyl)-N-methylfuro[2,3-b]pyridine-3-carboxamide]		8.30
CCC(C)c1nc2oc(-c3ccc(F)cc3)c(C(=O)NC)c2cc1-c1cccc(C(=O)NC(C)(C)c2ncon2)c1 (centres unmarked) [Example 16, 5-(3-((2-(1,2,4-oxadiazol-3-yl)propan-2-yl)carbamoyl)phenyl)-6-(sec-butyl)-2-(4-fluorophenyl)-N-methylfuro[2,3-b]pyridine-3-carboxamide]		7.70
[2H]C([2H])([2H])Oc1ncc(-c2cc3c(C(=O)NC)c(-c4ccc(F)cc4)oc3nc2NCC(F)(F)F)cc1C(=O)NC(c1ncon1)(C([2H])([2H])[2H])C([2H])([2H])[2H] [Example 18, 5-[2-(4-fluorophenyl)-3-(methylcarbamoyl)-6-[(2,2,2-trifluoroethyl)amino]furo[2,3-b]pyridin-5-yl]-2-(^2H3)methoxy-N-[2-(1,2,4-oxadiazol-3-yl)(^2H6)propan-2-yl]pyridine-3-carboxamide]	8.36	
[2H]c1nc(C(NC(=O)c2cc(-c3cc4c(C(=O)NC)c(-c5ccc(F)cc5)oc4nc3NCC(F)(F)F)cnc2OC([2H])([2H])[2H])(C([2H])([2H])[2H])C([2H])([2H])[2H])no1 [Example 19, 5-[2-(4-fluorophenyl)-3-(methylcarbamoyl)-6-[(2,2,2-trifluoroethyl)amino]furo[2,3-b]pyridin-5-yl]-2-(^2H3)methoxy-N-{2-[(^2H)-1,2,4-oxadiazol-3-yl](^2H6)propan-2-yl}pyridine-3-carboxamide]	8.24	
[2H]C([2H])([2H])Oc1ncc(-c2cc3c(C(=O)NC)c(-c4ccc(F)cc4)oc3nc2OCC(F)(F)F)cc1C(=O)NC(c1ncon1)(C([2H])([2H])[2H])C([2H])([2H])[2H] [Example 21, 5-[2-(4-fluorophenyl)-3-(methylcarbamoyl)-6-(2,2,2-trifluoroethoxy)furo[2,3-b]pyridin-5-yl]-2-(^2H3)methoxy-N-[2-(1,2,4-oxadiazol-3-yl)(^2H6)propan-2-yl]pyridine-3-carboxamide]	8.65	
[2H]C([2H])([2H])Oc1ncc(-c2cc3c(C(=O)NC)c(-c4ccc(F)cc4)oc3nc2OCC(F)(F)F)cc1C(=O)NC(C)(C)c1ncon1 [Example 22, 5-[2-(4-fluorophenyl)-3-(methylcarbamoyl)-6-(2,2,2-trifluoroethoxy)furo[2,3-b]pyridin-5-yl]-2-(^2H3)methoxy-N-[2-(1,2,4-oxadiazol-3-yl)propan-2-yl]pyridine-3-carboxamide]	8.77	
[2H]C([2H])([2H])C(NC(=O)c1cc(-c2cc3c(C(=O)NC)c(-c4ccc(F)cc4)oc3nc2NCC(F)(F)F)cnc1OC)(c1ncon1)C([2H])([2H])[2H] [Example 26, 5-[2-(4-fluorophenyl)-3-(methylcarbamoyl)-6-[(2,2,2-trifluoroethyl)amino]furo[2,3-b]pyridin-5-yl]-2-methoxy-N-[2-(1,2,4-oxadiazol-3-yl)(^2H6)propan-2-yl]pyridine-3-carboxamide]	8.20	
[2H]C([2H])([2H])Oc1ncc(-c2cc3c(C(=O)NC)c(-c4ccc(F)cc4)oc3nc2NCC(F)(F)F)cc1C(=O)NC(C)(C)c1ncon1 [Example 27, 5-[2-(4-fluorophenyl)-3-(methylcarbamoyl)-6-[(2,2,2-trifluoroethyl)amino]furo[2,3-b]pyridin-5-yl]-2-(^2H3)methoxy-N-[2-(1,2,4-oxadiazol-3-yl)propan-2-yl]pyridine-3-carboxamide]	8.36	
